Active and inactive are the calls of the source.
Tests used:
CHO = assay: cytotoxicity in TLR9-MyD88 CHO cells, dose response, cytotoxicity control for TLR9-MyD88 binding inhibitor project, cell-based, luminescence (AID 588339); type: functional, hamster; conditions: Cricetulus griseus;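 further: CHO cells stably coexpressing TLR9 and MyD88 fusions from primary screen; compound exposure lasted 48 hours before viability readout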
Genome polyprotein = Genome polyprotein (dengue virus type 2, UniProt P29990); assay: Dengue-2 NS5 methyltransferase inhibitors, primary screen, biochemical, confirmation dose response (AID 588689); type: functional
Chain of Genome polyprotein (P29990 2492-3391 limits assumed): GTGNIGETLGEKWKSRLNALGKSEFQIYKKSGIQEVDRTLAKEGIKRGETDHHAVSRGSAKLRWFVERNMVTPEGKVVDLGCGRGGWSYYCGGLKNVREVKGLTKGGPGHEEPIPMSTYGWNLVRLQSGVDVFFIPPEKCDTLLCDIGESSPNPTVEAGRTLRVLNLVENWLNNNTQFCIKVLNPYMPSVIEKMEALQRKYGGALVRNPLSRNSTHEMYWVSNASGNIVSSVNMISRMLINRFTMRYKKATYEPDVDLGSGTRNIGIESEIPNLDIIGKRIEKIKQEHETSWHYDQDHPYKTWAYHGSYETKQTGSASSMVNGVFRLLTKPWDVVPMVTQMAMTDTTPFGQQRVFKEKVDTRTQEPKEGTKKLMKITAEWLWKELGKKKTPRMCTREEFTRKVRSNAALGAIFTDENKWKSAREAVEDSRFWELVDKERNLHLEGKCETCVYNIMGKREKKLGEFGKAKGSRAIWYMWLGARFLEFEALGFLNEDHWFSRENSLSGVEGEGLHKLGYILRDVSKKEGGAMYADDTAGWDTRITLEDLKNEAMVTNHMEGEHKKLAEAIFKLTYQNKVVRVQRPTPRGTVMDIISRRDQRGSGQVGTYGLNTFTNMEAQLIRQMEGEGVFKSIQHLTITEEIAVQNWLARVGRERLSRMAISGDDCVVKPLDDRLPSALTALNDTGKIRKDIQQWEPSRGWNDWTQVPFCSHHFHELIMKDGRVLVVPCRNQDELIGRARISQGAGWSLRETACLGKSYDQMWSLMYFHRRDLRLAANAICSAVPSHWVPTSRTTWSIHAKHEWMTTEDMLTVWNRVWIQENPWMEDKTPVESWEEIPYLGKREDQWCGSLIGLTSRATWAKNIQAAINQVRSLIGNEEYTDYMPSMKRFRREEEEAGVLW

HEK293 = assay: inhibitors of LMP1-driven NF-kB reporter, dose response, cell-based, HEK293, luciferase, cherry-pick (AID 588343); type: functional; conditions: Homo sapiens
[1] = biological target: T1, Polyadenylate-binding protein 1 (Homo sapiens, UniProt P11940); assay: PABP1 MLLE–PAM2 binding inhibitor potency, dose response, biochemical, fluorescence polarization, FITC-PAM2 peptide (AID 602259); type: functional; conditions: read-out: IC50_Mean
T1 sequence (P11940 whole entry): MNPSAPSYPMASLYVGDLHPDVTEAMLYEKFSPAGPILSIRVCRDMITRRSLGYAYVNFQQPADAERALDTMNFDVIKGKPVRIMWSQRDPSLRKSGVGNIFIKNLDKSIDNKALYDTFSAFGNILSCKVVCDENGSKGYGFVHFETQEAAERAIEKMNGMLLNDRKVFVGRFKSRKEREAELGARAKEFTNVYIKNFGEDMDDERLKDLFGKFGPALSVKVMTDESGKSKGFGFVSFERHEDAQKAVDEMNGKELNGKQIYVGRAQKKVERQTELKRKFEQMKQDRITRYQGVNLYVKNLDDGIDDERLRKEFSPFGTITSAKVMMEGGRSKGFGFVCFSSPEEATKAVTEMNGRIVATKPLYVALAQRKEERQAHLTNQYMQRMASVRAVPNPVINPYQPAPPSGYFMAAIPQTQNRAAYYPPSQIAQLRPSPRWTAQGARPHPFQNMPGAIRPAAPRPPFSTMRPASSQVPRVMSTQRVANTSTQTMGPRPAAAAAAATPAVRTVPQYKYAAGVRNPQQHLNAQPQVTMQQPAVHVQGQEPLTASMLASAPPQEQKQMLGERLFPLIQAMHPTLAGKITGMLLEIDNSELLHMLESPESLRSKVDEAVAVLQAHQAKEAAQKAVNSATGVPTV

Paired box protein Pax-8 = Paired box protein Pax-8 (Homo sapiens, UniProt Q06710); assay: inhibitors of PAX8-driven TPO luciferase reporter, dose response, RMG-I cells, cherry-pick (AID 687027); type: functional, cell-based;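 further: luciferase reporter driven by Pax8 target thyroperoxidase promoter measured by SteadyGlo luminescence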
Chain of Paired box protein Pax-8 (Q06710 whole entry): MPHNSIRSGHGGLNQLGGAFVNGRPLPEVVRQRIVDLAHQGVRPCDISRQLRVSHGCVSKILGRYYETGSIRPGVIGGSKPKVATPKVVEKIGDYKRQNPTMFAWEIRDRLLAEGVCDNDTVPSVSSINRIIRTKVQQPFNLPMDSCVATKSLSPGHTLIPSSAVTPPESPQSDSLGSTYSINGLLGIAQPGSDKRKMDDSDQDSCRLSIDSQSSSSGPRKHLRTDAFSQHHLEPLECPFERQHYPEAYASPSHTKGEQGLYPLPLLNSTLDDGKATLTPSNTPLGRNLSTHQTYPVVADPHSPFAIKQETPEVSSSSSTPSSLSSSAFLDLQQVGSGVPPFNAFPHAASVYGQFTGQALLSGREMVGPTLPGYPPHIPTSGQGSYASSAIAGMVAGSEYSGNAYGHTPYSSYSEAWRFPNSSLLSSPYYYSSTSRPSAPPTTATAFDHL

Beta Lactamase = Beta Lactamase (Pseudomonas aeruginosa, UniProt Q932Y6); assay: beta-lactamase reporter inhibitor potency, dose response, artefact control for TLR9-MyD88 binding inhibitor project, BLA reporter cells, FRET fluorescence (AID 588341); type: cell-based;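 further: cell based assay in CHO-K1 cells stably expressing beta-lactamase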
Chain of Beta Lactamase (Q932Y6 whole entry): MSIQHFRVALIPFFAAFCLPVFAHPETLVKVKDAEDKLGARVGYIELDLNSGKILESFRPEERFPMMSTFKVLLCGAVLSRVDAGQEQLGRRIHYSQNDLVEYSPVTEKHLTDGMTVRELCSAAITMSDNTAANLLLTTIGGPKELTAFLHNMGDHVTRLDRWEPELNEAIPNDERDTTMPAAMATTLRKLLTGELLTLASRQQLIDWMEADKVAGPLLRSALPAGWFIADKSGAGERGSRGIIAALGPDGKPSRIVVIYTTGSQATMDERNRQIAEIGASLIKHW

[2] = non-specific cell cytotoxicity, dose response, cytotoxicity control for PAX8 inhibitor project, plate reader, dry powder samples (AID 743021); type: functional, cell-based
Vero = Vero cell cytotoxicity, cytotoxicity control for flavivirus capping enzyme inhibitors (AID 588742); type: functional; conditions: Chlorocebus sabaeus
[3] = human group III sPLA2 inhibitors, dose response, biochemical, QFRET, IC50 (AID 743457);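 further: green fluorescence rise as the enzyme cleaves BODIPY PC-A2 in liposomes; potency for inhibition of the enzyme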
[4] = biological target: T1, Polyadenylate-binding protein 1; assay: PABP1 MLLE–PAM2 interaction inhibitors, dose response, miRNA deadenylation inhibitor project, biochemical, fluorescence polarization, Cy5-PAM2 peptide, secondary (AID 602260); type: functional; conditions: read-out: IC50_Mean
[5] = HEK293 cell cytotoxicity, dose response, cytotoxicity control, cherry-picks, set 5 (AID 1053117); type: functional, cell-based
[6] = P. falciparum Dd2 growth inhibitors, dose response, SYBR Green, cherry-picked samples (AID 1159567); type: functional, cell-based
[7] = miR-122 activators in hepatoma reporter cells, dose response, cell-based, Huh7 psiCHECK-miR122, Renilla luciferase, cherry-picked (AID 651956); type: functional;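 further: huh7 hepatoma cells stably carrying a psiCHECK-2 miR-122 sensor plasmid; renilla luciferase signal reporting endogenous miR-122 activity after 48 h compound exposure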
[8] = HepG2 cell cytotoxicity, dose response, cytotoxicity control, cherry-picked samples (AID 1159577); type: functional, cell-based
[9] = biological target: T2, Heat shock factor protein 1 (Mus musculus, UniProt P38532); assay: HSF1 potentiators in luciferase reporter cells, confirmation, cell-based, NIH3T3, luminescence, dose retest (AID 435004); type: functional;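 further: stress induced by proteasome inhibitor MG132 added 30 min after compound; luciferase reporter driven by HSF1 response element in NIH3T3 cells; actives raise luminescence as potentiators of the MG132 stress response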
T2 sequence (P38532 whole entry): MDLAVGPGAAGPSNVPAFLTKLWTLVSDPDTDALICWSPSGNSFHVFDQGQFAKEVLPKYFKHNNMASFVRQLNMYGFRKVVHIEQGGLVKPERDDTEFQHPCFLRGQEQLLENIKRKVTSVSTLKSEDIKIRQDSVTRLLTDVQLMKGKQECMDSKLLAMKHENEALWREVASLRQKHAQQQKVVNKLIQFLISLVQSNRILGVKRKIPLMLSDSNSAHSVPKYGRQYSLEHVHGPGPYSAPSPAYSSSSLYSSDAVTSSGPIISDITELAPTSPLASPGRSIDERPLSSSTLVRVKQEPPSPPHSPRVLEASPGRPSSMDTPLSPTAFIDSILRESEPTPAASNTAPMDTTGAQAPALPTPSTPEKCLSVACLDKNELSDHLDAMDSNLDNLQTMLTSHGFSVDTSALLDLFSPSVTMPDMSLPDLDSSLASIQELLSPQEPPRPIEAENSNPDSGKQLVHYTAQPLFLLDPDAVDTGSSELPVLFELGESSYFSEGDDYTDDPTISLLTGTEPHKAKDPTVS

[10] = inhibitors of control Renilla luciferase reporter, dose response, counter-screen for Shn3 3'UTR targeting project, Clone20-Shn3RL cells, dual-Glo, cherry-pick, set 2 (AID 720724); type: functional, cell-based; conditions: Dual-Go Shn3RL
[11] = Shn3 3'UTR reporter inhibitors, dose response, cell-based, Clone20 osteoblasts, firefly luciferase, cherry-picked (AID 624132); type: functional;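 further: firefly luciferase luminescence from reporter carrying the Shn3 3'UTR in osteoblasts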
[12] = biological target: Heat shock protein HSP 90-alpha (Homo sapiens, UniProt P07900); type: functional, organism-based
[13] = biological target: T3, Short transient receptor potential channel 4 (Mus musculus, UniProt Q9QUQ5); assay: mouse TRPC4 channel activators, dose response, cell-based, HEK293 TRPC4/mu-opioid, Fluo-4 calcium (AID 434937); type: functional
T3 sequence (Q9QUQ5 whole entry): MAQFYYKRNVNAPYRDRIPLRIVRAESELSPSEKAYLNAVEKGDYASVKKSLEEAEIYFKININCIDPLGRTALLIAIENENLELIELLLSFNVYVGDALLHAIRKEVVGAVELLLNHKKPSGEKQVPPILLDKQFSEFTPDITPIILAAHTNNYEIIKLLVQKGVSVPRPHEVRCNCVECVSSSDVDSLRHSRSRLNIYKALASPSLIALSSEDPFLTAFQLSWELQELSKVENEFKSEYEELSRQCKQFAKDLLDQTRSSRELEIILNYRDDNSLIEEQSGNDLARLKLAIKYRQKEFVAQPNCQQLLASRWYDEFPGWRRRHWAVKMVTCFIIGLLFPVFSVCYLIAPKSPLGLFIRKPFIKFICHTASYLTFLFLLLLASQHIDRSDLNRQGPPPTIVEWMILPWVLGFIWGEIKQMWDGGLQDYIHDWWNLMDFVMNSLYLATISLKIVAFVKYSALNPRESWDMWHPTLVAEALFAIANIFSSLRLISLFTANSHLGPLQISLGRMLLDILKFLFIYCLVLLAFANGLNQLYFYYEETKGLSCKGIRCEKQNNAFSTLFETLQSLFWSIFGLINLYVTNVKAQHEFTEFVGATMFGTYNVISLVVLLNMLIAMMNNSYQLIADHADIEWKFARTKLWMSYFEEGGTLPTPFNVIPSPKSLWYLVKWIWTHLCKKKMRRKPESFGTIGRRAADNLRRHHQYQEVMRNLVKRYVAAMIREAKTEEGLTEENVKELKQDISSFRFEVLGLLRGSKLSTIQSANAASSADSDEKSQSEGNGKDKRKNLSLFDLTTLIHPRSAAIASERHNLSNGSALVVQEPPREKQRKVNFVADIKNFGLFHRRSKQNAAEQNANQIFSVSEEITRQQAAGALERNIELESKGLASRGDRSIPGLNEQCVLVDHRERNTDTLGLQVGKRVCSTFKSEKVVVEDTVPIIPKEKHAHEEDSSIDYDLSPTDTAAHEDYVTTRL

[14] = biological target: T4, Apoptotic protease-activating factor 1 (Homo sapiens, UniProt O14727); type: functional
T4 sequence (O14727 whole entry): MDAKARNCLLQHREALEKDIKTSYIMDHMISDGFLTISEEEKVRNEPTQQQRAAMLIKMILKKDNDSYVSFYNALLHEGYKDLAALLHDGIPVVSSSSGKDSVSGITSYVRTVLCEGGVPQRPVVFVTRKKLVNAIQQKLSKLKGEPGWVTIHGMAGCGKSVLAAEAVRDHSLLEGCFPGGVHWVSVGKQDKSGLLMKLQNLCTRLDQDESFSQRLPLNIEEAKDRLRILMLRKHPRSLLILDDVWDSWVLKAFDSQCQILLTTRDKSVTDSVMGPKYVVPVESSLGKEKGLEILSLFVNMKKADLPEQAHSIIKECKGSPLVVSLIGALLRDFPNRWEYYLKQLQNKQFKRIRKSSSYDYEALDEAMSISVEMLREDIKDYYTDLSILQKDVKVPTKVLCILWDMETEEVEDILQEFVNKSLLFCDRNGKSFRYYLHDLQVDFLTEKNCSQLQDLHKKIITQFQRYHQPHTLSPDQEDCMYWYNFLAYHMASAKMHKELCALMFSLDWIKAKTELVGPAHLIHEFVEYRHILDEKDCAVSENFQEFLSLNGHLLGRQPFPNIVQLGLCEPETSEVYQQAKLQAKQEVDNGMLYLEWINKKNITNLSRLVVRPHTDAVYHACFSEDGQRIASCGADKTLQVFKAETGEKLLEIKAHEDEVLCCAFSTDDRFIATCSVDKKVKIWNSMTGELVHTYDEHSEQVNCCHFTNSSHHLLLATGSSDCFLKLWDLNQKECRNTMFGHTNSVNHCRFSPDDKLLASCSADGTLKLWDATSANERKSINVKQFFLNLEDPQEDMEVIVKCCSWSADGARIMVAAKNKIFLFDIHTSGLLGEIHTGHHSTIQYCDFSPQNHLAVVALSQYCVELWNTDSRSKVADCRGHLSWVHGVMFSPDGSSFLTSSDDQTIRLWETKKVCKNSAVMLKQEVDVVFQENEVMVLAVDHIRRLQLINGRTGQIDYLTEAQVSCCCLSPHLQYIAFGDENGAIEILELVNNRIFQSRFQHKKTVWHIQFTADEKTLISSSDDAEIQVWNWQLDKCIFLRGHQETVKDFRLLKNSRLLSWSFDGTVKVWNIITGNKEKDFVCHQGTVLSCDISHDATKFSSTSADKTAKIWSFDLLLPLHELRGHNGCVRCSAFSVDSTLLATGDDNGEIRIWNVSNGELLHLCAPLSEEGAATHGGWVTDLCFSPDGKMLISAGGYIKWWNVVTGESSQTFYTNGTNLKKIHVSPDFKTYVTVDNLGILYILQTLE

[15] = biological target: Tyrosyl-DNA phosphodiesterase 2 (Homo sapiens, UniProt O95551); assay: human TDP2 enzyme inhibitors, dose response, biochemical, epi absorbance, IC50 (AID 743297)
Chain of Tyrosyl-DNA phosphodiesterase 2 (O95551 whole entry, the tested form may be a part): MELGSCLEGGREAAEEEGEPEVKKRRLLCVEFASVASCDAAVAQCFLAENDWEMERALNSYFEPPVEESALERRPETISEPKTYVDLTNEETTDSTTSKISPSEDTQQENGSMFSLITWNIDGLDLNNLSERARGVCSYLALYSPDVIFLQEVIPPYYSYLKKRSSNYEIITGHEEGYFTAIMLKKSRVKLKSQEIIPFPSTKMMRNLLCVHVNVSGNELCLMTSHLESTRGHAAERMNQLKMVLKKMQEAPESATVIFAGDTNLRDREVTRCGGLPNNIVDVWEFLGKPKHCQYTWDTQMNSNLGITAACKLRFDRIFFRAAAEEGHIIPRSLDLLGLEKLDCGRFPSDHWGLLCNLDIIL

[16] = biological target: Potassium channel subfamily K member 3 (Rattus norvegicus, UniProt O54912); assay: SAR analysis for the identification of selective inhibitors of the two-pore domain potassium channel TASK1(KCNK3):Automated Electrophysiology.; type: functional
Chain of Potassium channel subfamily K member 3 (Rattus norvegicus, UniProt O54912) (O54912 whole entry, the tested form may be a part): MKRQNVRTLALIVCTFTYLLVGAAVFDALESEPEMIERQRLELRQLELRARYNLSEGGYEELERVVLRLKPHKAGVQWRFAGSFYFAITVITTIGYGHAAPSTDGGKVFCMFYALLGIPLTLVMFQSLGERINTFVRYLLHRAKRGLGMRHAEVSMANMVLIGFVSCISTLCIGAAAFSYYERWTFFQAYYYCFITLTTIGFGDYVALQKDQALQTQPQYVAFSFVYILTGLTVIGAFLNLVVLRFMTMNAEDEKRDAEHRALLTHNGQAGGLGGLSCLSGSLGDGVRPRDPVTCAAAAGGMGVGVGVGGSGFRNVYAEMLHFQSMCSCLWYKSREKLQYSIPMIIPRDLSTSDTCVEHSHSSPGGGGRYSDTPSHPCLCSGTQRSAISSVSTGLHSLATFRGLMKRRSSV

[17] = biological target: Potassium channel subfamily K member 3 (Homo sapiens, UniProt O14649); assay: TASK1 (KCNK3) potassium channel inhibitors, SAR follow-up, CHO cells, FluxOR thallium flux (AID 652212); type: functional
Chain of Potassium channel subfamily K member 3 (Homo sapiens, UniProt O14649) (O14649 whole entry): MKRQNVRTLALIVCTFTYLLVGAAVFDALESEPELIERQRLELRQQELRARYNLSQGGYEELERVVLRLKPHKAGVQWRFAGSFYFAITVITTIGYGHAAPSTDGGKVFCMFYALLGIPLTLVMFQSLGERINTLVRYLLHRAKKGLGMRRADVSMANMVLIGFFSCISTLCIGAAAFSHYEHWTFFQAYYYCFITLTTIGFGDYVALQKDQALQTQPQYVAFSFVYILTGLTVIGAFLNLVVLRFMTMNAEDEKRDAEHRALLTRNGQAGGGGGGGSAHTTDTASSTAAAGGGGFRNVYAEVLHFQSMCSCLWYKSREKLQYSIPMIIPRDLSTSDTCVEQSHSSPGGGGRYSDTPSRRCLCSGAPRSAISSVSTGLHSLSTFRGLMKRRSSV

[18] = biological target: Potassium channel subfamily K member 9 (Homo sapiens, UniProt Q9NPC2); assay: TASK3 (KCNK9) channel inhibitors, thallium flux, SAR follow-up, selectivity assay for TASK1 inhibitor project, cell-based, FluxOR thallium flux, concentration-response (AID 652211); type: functional;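 further: potency is for inhibitors of the channel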
Chain of Potassium channel subfamily K member 9 (Q9NPC2 whole entry): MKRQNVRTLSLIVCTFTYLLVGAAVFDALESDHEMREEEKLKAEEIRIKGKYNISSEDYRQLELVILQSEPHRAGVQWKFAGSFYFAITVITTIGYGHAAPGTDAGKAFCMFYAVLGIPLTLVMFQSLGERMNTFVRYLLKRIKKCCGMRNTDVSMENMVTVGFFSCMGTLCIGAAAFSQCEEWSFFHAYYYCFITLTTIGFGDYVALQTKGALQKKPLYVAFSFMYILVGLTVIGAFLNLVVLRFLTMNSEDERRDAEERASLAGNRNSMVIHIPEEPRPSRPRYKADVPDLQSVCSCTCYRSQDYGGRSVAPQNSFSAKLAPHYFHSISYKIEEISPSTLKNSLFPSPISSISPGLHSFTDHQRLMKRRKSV

With `COc1ccccc1N(C(C)=O)C1=C(Cl)C(=O)c2ccccc2C1=O` the IC50 (CHO) was 1.03 µM (active), the IC50 (Genome polyprotein) was 9.2 µM (active) and the AC50 (HEK293) was 5.98 µM (active). The IC50 [1] was > 66 µM (inactive), the AC50 (Paired box protein Pax-8) was 3.59 µM (active) and the IC50 (Beta Lactamase) was 5.37 µM (active). For the same molecule, the AC50 [2] was 27.8 µM (active), the CC50 (Vero) was 22.6 µM (active) and the IC50 [3] was > 122 µM (inactive). The IC50 [4] was > 66 µM (inactive).
For `CO[C@@H]1CN(C)C(=O)c2cc(NC(=O)Nc3ccc(Cl)c(Cl)c3)ccc2OC[C@H](C)NC[C@H]1C`, the AC50 [5] was > 52 µM (inactive), the AC50 [6] was 6.4 µM (active) and the AC50 [7] was 24.8 µM (active). The AC50 [8] was 7.83 µM (active).
For `O=C1S/C(=C\c2ccc(N3CCOCC3)o2)C(=O)N1Cc1c(F)cccc1Cl`, the EC50 [9] was > 260 µM (inactive), the AC50 [10] was 42.1 µM (active) and the AC50 [11] was 6.72 µM (active). For the same molecule, the AC50 [12] was 18.5 µM (active) and the EC50 [13] was 6.68 µM (active).
In the case of `O=C1C(O)=C(O)C(=O)c2ccccc21`, the IC50 [14] is reported as 12.5 µM (active), the IC50 (Genome polyprotein) is reported as > 100 µM (active) and the IC50 [15] is reported as 19.3 µM (inactive).
In the case of `COc1ccccc1NC(=O)c1cccc(NC(=O)c2ccccc2OC)c1`, the IC50 [16] is reported as 0.03 µM (active), the IC50 [17] is reported as 0.008 µM (active) and the IC50 [18] is reported as 3.02 µM (active).
